Test system: LG0703-F948-PDC complex spheroid viability
Test: Anticancer human tumor LG0703-F948-PDC patient-derived lung adenocarcinoma cell line growth inhibition
Details: for IC50: curve of first compound; for viability, T/C: stronger effect = lower value; active = viability on the fitted dose curve at most 10% of control; inactive = the rest
Method in brief: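 Complex spheroids of tumor cells with HUVEC and human MSCs, exposed to iadademstat combined with other agents. Each agent tested in half-log steps from near clinical Cmax (else 10 microM top), DMSO ≤0.25%.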

[1] = second compound 0.1 µM, first compound 0.00316 µM
[2] = second compound 0.1 µM, first compound 0.01 µM
[3] = second compound 0.1 µM, first compound 0.0316 µM
[4] = second compound 0.1 µM, first compound 0.1 µM
[5] = second compound 0.1 µM, first compound 0.316 µM
[6] = second compound 0.1 µM, first compound 1 µM
[7] = second compound 0.316 µM, first compound 0.00316 µM
[8] = second compound 0.316 µM, first compound 0.01 µM
[9] = second compound 0.316 µM, first compound 0.0316 µM
[10] = second compound 0.316 µM, first compound 0.1 µM
[11] = second compound 0.316 µM, first compound 0.316 µM
[12] = second compound 0.316 µM, first compound 1 µM
[13] = second compound 1 µM, first compound 0.00316 µM
[14] = second compound 1 µM, first compound 0.01 µM
[15] = second compound 1 µM, first compound 0.0316 µM
[16] = second compound 1 µM, first compound 0.1 µM
[17] = second compound 1 µM, first compound 0.316 µM
[18] = second compound 1 µM, first compound 1 µM
[19] = second compound 3.16 µM, first compound 0.00316 µM
[20] = second compound 3.16 µM, first compound 0.01 µM
[21] = second compound 3.16 µM, first compound 0.0316 µM
[22] = second compound 3.16 µM, first compound 0.1 µM
[23] = second compound 3.16 µM, first compound 0.316 µM
[24] = second compound 3.16 µM, first compound 1 µM
[25] = second compound 10 µM, first compound 0.00316 µM
[26] = second compound 10 µM, first compound 0.01 µM
[27] = second compound 10 µM, first compound 0.0316 µM
[28] = second compound 10 µM, first compound 0.1 µM
[29] = second compound 10 µM, first compound 0.316 µM
[30] = second compound 10 µM, first compound 1 µM
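Note: spheroids exposed to agents for seven days before readout.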
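Throughout, for viability, T/C: 100% = DMSO vehicle control wells as normalization base.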

O=C(C=Cn1cnc(-c2cc(C(F)(F)F)cc(C(F)(F)F)c2)n1)NNc1cnccn1 + NC1CC1c1ccc(-c2cccc(O)c2)cc1
25.9 nM: IC50 (second compound 1 µM)
114 nM: IC50 (second compound 10 µM)
12.1 nM: IC50 (second compound 0.1 µM)
inactive: viability, T/C [1] 62.2% | viability, T/C [2] 54.6% | viability, T/C [3] 38.8% | viability, T/C [4] 34.7% | viability, T/C [5] 31.8% | viability, T/C [6] 25.4% | viability, T/C [7] 67.6% | viability, T/C [8] 58.9% | viability, T/C [9] 40% | viability, T/C [10] 36.2% | viability, T/C [11] 26% | viability, T/C [12] 24.6% | viability, T/C [13] 70.4% | viability, T/C [14] 58.8% | viability, T/C [15] 47% | viability, T/C [16] 39.5% | viability, T/C [17] 29.5% | viability, T/C [18] 22.6% | viability, T/C [19] 70.4% | viability, T/C [20] 67.7% | viability, T/C [21] 64% | viability, T/C [22] 43.6% | viability, T/C [23] 22.4% | viability, T/C [24] 22% | viability, T/C [25] 75.8% | viability, T/C [26] 73.1% | viability, T/C [27] 64.2% | viability, T/C [28] 54.9% | viability, T/C [29] 31.7% | viability, T/C [30] 23.7%
69.1 nM: IC50 (second compound 3.16 µM)
18 nM: IC50 (second compound 0.316 µM)

COc1cc(C2c3cc4c(cc3C(OC3OC5COC(C)OC5C(O)C3O)C3COC(=O)C23)OCO4)cc(OC)c1O (stereo not given) + NC1CCC(NC2CC2c2ccccc2)CC1
inactive: viability, T/C (second compound 0.1 µM, first compound 0.00949 µM) 99.9% | viability, T/C (second compound 0.1 µM, first compound 0.03 µM) 104% | viability, T/C (second compound 0.1 µM, first compound 0.0949 µM) 94.8% | viability, T/C (second compound 0.1 µM, first compound 0.3 µM) 87.6% | viability, T/C (second compound 0.1 µM, first compound 0.949 µM) 72.2% | viability, T/C (second compound 0.1 µM, first compound 3 µM) 58.2% | viability, T/C (second compound 0.316 µM, first compound 0.00949 µM) 106% | viability, T/C (second compound 0.316 µM, first compound 0.03 µM) 108% | viability, T/C (second compound 0.316 µM, first compound 0.0949 µM) 90.7% | viability, T/C (second compound 0.316 µM, first compound 0.3 µM) 87.6% | viability, T/C (second compound 0.316 µM, first compound 0.949 µM) 77.8% | viability, T/C (second compound 0.316 µM, first compound 3 µM) 65% | viability, T/C (second compound 1 µM, first compound 0.00949 µM) 113% | viability, T/C (second compound 1 µM, first compound 0.03 µM) 127% | viability, T/C (second compound 1 µM, first compound 0.0949 µM) 108% | viability, T/C (second compound 1 µM, first compound 0.3 µM) 99.3% | viability, T/C (second compound 1 µM, first compound 0.949 µM) 91.4% | viability, T/C (second compound 1 µM, first compound 3 µM) 73.7% | viability, T/C (second compound 3.16 µM, first compound 0.00949 µM) 120% | viability, T/C (second compound 3.16 µM, first compound 0.03 µM) 105% | viability, T/C (second compound 3.16 µM, first compound 0.0949 µM) 112% | viability, T/C (second compound 3.16 µM, first compound 0.3 µM) 108% | viability, T/C (second compound 3.16 µM, first compound 0.949 µM) 98.5% | viability, T/C (second compound 3.16 µM, first compound 3 µM) 86.8% | viability, T/C (second compound 10 µM, first compound 0.00949 µM) 104% | viability, T/C (second compound 10 µM, first compound 0.03 µM) 115% | viability, T/C (second compound 10 µM, first compound 0.0949 µM) 118% | viability, T/C (second compound 10 µM, first compound 0.3 µM) 86.2% | viability, T/C (second compound 10 µM, first compound 0.949 µM) 97.5% | viability, T/C (second compound 10 µM, first compound 3 µM) 81.4%
> 3000 nM: IC50 (second compound 0.1 µM) | IC50 (second compound 0.316 µM) | IC50 (second compound 1 µM) | IC50 (second compound 3.16 µM) | IC50 (second compound 10 µM)

Nc1ncn(C2CC(O)C(CO)O2)c(=O)n1 (stereo not given) + NC1CCC(NC2CC2c2ccccc2)CC1
> 1000 nM: IC50 (second compound 0.1 µM) | IC50 (second compound 0.316 µM) | IC50 (second compound 1 µM) | IC50 (second compound 3.16 µM) | IC50 (second compound 10 µM)
inactive: viability, T/C [1] 101% | viability, T/C [2] 102% | viability, T/C [3] 98% | viability, T/C [4] 96.3% | viability, T/C [5] 95.4% | viability, T/C [6] 81.9% | viability, T/C [7] 114% | viability, T/C [8] 118% | viability, T/C [9] 110% | viability, T/C [10] 98.7% | viability, T/C [11] 102% | viability, T/C [12] 98.5% | viability, T/C [13] 107% | viability, T/C [14] 126% | viability, T/C [15] 130% | viability, T/C [16] 106% | viability, T/C [17] 97% | viability, T/C [18] 112% | viability, T/C [19] 122% | viability, T/C [20] 121% | viability, T/C [21] 117% | viability, T/C [22] 111% | viability, T/C [23] 131% | viability, T/C [24] 101% | viability, T/C [25] 122% | viability, T/C [26] 141% | viability, T/C [27] 111% | viability, T/C [28] 114% | viability, T/C [29] 113% | viability, T/C [30] 122%
